Test results as given in patent US20260226048A1, “MULTI-CYCLIC IRAK AND FLT3 INHIBITING COMPOUNDS AND USES THEREOF” (CHILDREN'S HOSPITAL MEDICAL CENTER, priority 2023, published 2026).
Read-outs that look alike come from different tables or passages of the source.

Experiments:
[1] = biological target: T1, IRAK1 (Homo sapiens, UniProt P51617); assay: RBC HotSpot Kinase Assay, IRAK1; type: biochemical; conditions: isolated kinase enzyme, 33P-ATP, P81 filter-binding
T1 construct: purchased Reaction Biology (RBC HotSpot)
From the text: (§1) This assay uses the isolated kinase enzyme. […] Unlike kinase binding assays that measure competition for ATP, the HotSpot Kinase Assay is a functional assay that measures catalytic activity; as such it measures relative functional potency regardless of the mechanism of enzyme inhibition. This assay uses the form of the various enzymes that are easiest to express, which may not necessarily be the form of the enzyme that exist in the cell. (Sometimes the carboxy terminus has been truncated to aid in expression, or, if it is a receptor kinase, the enzyme itself is isolated from the other parts of the receptor that are involved in regulating kinase activity.)
(§2) The reagent used was as follows: Base Reaction buffer; 20 mM Hepes (pH 7.5), 10 mM MgCl2, 1 mM EGTA, 0.01% Brij35, 0.02 mg/ml BSA, 0.1 mM Na3VO4, 2 mM DTT, 1% DMSO. Required cofactors were added individually to each kinase reaction.

[2] = tested on: MOLM14 D835Y cells; assay: MOLM14 D835Y cell viability assay (Cell Titer Glo); type: cell-based; conditions: cell viability, Cell Titer Glo, 48 hours, read-out: MOLM14 D835Y IC50
Protocol: Both cell lines have activated FLT3 receptors, each of which carry additional resistance mutations in the kinase domain (D835Y and F691L, respectively).
For viability/cytotoxicity assessments, cells were seeded into 1536-well white polystyrene tissue culture-treated Greiner plates using a Multidrop Combi dispenser (ThermoFisher), in final volume 5 μL of growth media per well, at a density of 1000 cells per well. […] Plates were incubated for 48 hours at standard incubator conditions covered by a stainless steel gasketed lid to prevent evaporation. 48 hours post compound addition, 3 μL of Cell Titer Glo (Promega) were added to each well and plates were incubated at room temperature for 15 minutes with the stainless-steel lid in place. Luminescence readings were taken using a Viewlux imager (PerkinElmer) with a 2 second exposure time per plate.

[3] = biological target: T2, IRAK4 (Homo sapiens, UniProt Q9NWZ3); assay: RBC HotSpot Kinase Assay, IRAK4; type: biochemical; design: purchased Reaction Biology (RBC HotSpot); conditions: isolated kinase enzyme, 33P-ATP, P81 filter-binding
T2 sequence (Q9NWZ3 1-460): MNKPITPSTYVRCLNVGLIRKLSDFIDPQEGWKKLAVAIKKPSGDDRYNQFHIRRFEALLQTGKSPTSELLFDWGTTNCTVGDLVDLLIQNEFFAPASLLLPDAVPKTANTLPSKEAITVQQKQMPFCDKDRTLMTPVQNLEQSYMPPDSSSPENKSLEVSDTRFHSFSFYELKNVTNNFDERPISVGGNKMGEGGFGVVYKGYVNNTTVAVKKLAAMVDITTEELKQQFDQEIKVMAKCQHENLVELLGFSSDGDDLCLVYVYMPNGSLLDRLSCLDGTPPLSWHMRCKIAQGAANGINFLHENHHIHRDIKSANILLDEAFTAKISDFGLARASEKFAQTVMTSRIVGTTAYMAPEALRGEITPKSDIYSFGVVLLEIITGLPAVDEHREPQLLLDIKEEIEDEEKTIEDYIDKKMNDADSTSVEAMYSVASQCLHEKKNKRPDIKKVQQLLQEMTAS
From the text: as §1, with “enzyme. This assay is very useful for determining competition of the inhibitor for ATP and/or substrates and for measuring the kinetics of enzyme inhibition.” for “enzyme.”
as §2
The reaction procedure was as follows: • 1) Substrates were prepared in freshly prepared Reaction Buffer. • 2) Any required cofactors were delivered to the substrate solution above. • 3) Kinase was delivered into the substrate solution and gently mixed. • 4) Compounds were delivered in 1000A DM into the kinase reaction mixture by Acoustic technology (Echo550; nanoliter range), followed by incubation for 20 min at room temp. • 5) 33P-ATP was delivered into the reaction mixture to initiate the reaction. • 6) The mixture was incubated for 2 hours at room temperature. • 7) Kinase activity was detected by P81 filter-binding method.

[4] = biological target: T3, FLT3 (Homo sapiens, UniProt P36888); assay: RBC HotSpot Kinase Assay, FLT3; type: biochemical; design: purchased Reaction Biology (RBC HotSpot); conditions: isolated kinase enzyme, 33P-ATP, P81 filter-binding
T3 sequence (P36888 27-993): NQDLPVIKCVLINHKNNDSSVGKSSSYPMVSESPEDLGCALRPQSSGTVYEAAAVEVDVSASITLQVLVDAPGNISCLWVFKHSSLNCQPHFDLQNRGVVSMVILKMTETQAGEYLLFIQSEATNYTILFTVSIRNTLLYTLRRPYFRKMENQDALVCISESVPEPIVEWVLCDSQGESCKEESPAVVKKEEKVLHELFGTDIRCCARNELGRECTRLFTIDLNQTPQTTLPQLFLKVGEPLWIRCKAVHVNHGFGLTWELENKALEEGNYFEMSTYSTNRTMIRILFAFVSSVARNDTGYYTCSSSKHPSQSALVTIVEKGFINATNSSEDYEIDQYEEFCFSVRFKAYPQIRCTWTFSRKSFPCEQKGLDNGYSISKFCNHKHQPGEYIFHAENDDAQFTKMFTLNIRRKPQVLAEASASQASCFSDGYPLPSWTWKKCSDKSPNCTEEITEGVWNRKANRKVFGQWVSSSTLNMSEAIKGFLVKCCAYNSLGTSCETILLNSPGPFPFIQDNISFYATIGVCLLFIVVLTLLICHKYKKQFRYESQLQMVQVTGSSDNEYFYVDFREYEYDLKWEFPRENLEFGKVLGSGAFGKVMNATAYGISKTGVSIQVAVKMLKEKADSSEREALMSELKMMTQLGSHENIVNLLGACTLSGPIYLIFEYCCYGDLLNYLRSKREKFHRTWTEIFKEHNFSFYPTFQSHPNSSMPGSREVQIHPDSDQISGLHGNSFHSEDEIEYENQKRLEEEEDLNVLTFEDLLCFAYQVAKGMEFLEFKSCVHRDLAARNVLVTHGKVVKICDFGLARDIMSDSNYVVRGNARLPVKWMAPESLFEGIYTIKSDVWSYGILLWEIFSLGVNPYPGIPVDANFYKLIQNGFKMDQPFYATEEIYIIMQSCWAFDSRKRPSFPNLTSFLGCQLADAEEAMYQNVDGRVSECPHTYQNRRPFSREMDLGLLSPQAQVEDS
From the text: as §1, §2

T1 sequence (P51617 whole entry): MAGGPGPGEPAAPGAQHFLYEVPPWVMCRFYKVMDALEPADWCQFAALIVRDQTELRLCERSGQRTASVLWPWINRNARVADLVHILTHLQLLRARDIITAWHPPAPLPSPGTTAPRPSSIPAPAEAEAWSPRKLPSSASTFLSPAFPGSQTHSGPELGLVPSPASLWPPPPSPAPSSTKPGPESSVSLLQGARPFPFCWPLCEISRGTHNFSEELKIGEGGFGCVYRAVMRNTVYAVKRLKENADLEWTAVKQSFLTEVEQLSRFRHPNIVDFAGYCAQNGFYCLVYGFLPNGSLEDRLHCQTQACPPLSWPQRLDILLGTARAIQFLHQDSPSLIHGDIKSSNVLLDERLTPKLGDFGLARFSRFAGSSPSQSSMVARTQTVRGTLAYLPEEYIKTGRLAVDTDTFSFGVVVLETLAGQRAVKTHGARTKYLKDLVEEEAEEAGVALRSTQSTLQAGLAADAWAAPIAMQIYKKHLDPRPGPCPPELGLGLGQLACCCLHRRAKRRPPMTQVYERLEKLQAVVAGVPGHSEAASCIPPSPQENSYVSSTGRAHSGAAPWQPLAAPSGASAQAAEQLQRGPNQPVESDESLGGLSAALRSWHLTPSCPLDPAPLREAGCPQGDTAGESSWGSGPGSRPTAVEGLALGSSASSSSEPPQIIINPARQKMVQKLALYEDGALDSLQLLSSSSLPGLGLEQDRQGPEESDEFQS

SMILES	IC50 [1] [nM]	IC50 ([2]; Homo sapiens, MOLM-14, 48 h) [nM]	IC50 [3] [nM]	IC50 [4] [nM]	IC50 [2] [nM]
COc1cc2ncc(-c3nc(N[C@H]4CNC[C@@H]4F)ncc3F)n2nc1C1CC(F)(F)C1 [Compound 50a, 4-(6-(3,3-difluorocyclobutyl)-7-methoxyimidazo[1,2-b]pyridazin-3-yl)-5-fluoro-N-((3S,4S)-4-fluoropyrrolidin-3-yl)pyrimidin-2-amine]	3	29	0.8	< 0.5	
FC(F)COc1cc2ncc(-c3ccnc(N[C@H]4CNC[C@@H]4F)n3)n2nc1C1CC1 [Compound 5a, 4-(6-cyclopropyl-7-(2,2-difluoroethoxy)imidazo[1,2-b]pyridazin-3-yl)-N-((3S,4S)-4-fluoropyrrolidin-3-yl)pyrimidin-2-amine]	29	29	0.9	< 0.5	
COc1cc2ncc(-c3ccnc(N[C@@H]4CCCNC4)n3)n2nc1C1CCC1 [Compound 78a, (R)-4-(6-cyclobutyl-7-methoxyimidazo[1,2-b]pyridazin-3-yl)-N-(piperidin-3-yl)pyrimidin-2-amine]	75	29	7	< 0.5	
CC(O)(c1cn2c(-c3nc(N[C@H]4CNCC[C@@H]4F)ncc3F)cnc2cn1)C(F)(F)F (single isomer, unassigned) [Compound 134a]	2		1	< 0.5	
COc1cc2ncc(-c3nc(N[C@H]4CNC[C@@H]4F)ncc3F)n2nc1C1CC1 [Compound 2a, 4-(6-cyclopropyl-7-methoxyimidazo[1,2-b]pyridazin-3-yl)-5-fluoro-N-((3S,4S)-4-fluoropyrrolidin-3-yl)pyrimidin-2-amine]	1	4	0.7	< 0.5	
CC(O)(c1ccc2ncc(-c3nc(N[C@@H]4CCCNC4)ncc3F)n2c1)C(F)(F)F (single isomer, unassigned) [Compound 39a]	2		1	< 0.5	32
COc1cc2ncc(-c3ccnc(N[C@H]4CNC[C@@H]4F)n3)n2nc1N1CC(F)(F)C1 [Compound 16a, 4-(6-(3,3-difluoroazetidin-1-yl)-7-methoxyimidazo[1,2-b]pyridazin-3-yl)-N-((3S,4S)-4-fluoropyrrolidin-3-yl)pyrimidin-2-amine]	245	182	8	< 0.5	
COc1cc2ncc(-c3cncc(N[C@@H]4CCCNC4)n3)n2nc1C1CC(F)(F)C1 [Compound 72a, (R)-6-(6-(3,3-difluorocyclobutyl)-7-methoxyimidazo[1,2-b]pyridazin-3-yl)-N-(piperidin-3-yl)pyrazin-2-amine]	127	289	60	0.8	
COc1cc2ncc(-c3cncc(N[C@H]4CNCC[C@@H]4F)n3)n2nc1C1CC(F)(F)C1 [Compound 73a, 6-(6-(3,3-difluorocyclobutyl)-7-methoxyimidazo[1,2-b]pyridazin-3-yl)-N-((3S,4S)-4-fluoropiperidin-3-yl)pyrazin-2-amine]	129	204	12	< 0.5	
[2H]C([2H])([2H])Oc1cc2ncc(-c3ccnc(N[C@H]4CNCC[C@@H]4F)n3)n2nc1C1CC1 [Compound 128a, 4-(6-cyclopropyl-7-(methoxy-d3)imidazo[1,2-b]pyridazin-3-yl)-N-((3S,4S)-4-fluoropiperidin-3-yl)pyrimidin-2-amine]	24		0.7	< 0.5	
CC(O)(c1ccc2ncc(-c3ccnc(N[C@H]4CNC[C@@H]4F)n3)n2c1)C(F)(F)F (single isomer, unassigned) [Compound 24a]	16	41	0.9	< 0.5	
CC(O)(c1ccc2ncc(-c3cncc(N[C@@H]4CCCNC4)n3)n2c1)C(F)(F)F (single isomer, unassigned) [Compound 29a]	27		0.8	1	106
[2H]C([2H])([2H])Oc1cc2ncc(-c3ccnc(N[C@@H]4CCCNC4)n3)n2nc1C1CC1 [Compound 129a, (R)-4-(6-cyclopropyl-7-(methoxy-d3)imidazo[1,2-b]pyridazin-3-yl)-N-(piperidin-3-yl)pyrimidin-2-amine]	86		2	< 0.5	
CC(O)(c1cn2c(-c3nc(N[C@H]4CNCC[C@@H]4F)ncc3F)cnc2cn1)C(F)(F)F (single isomer, unassigned) [Compound 133a]	15		15	1	
CC(O)(c1cn2c(-c3nc(N[C@@H]4CCCNC4)ncc3F)cnc2cn1)C(F)(F)F (single isomer, unassigned) [Compound 131a]	15		28	2	
COc1cc2ncc(-c3nc(N[C@H]4CNCC[C@@H]4F)ncc3F)n2nc1C1(C)COC1 [Compound 70a, 5-fluoro-N-((3S,4S)-4-fluoropiperidin-3-yl)-4-(7-methoxy-6-(3-methyloxetan-3-yl)imidazo[1,2-b]pyridazin-3-yl)pyrimidin-2-amine]	3		< 0.5	< 0.5	
CC(O)(c1cn2c(-c3nc(N[C@@H]4CCCNC4)ncc3F)cnc2cn1)C(F)(F)F (single isomer, unassigned) [Compound 132a]	3		2	< 0.5	
